In US7598417B2, “Substituted fluoroethyl ureas as alpha 2 adrenergic agents” (Allergan, Inc., priority 2007, dated 2009):

What was measured:
Format in all cases: cell-based
alpha2B receptor = molecular target: T1, alpha2B receptor (Homo sapiens, UniProt P18089); experiment: Receptor Selection and Amplification Technology (RSAT) assay, alpha2B; conditions: for EC50: RSAT, NIH-3T3 cells cotransfected with receptor and Gq/i5, not active = not active at concentrations less than 10 micromolar, read-out: Alpha 2B EC50; for Alpha 2B IA (intrinsic activity): ratio of maximal effect of the drug to maximal effect of standard full agonist brimonidine (UK14304)
T1 construct: expressed in transfected cells; host or cells: NIH-3T3
T1 sequence (P18089 1-450): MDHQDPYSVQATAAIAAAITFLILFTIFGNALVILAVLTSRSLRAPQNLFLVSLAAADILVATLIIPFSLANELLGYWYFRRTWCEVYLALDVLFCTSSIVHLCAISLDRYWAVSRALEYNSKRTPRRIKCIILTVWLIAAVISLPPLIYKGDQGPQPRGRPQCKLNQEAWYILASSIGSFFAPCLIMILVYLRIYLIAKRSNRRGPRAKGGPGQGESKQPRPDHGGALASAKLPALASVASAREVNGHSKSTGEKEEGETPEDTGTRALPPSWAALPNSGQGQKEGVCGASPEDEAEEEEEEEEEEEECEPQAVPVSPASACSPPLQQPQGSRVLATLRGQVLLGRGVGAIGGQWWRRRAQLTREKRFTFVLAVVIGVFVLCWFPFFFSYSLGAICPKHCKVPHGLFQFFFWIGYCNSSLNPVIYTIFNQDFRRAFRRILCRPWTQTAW
Experimental: (§1) Receptor Selection and Amplification Technology (RSAT) Assay
(§2) The RSAT assay measures a receptor-mediated loss of contact inhibition that results in selective proliferation of receptor-containing cells in a mixed population of confluent cells. The increase in cell number is assessed with an appropriate transfected marker gene such as β-galactosidase, the activity of which can be easily measured in a 96-well format. Receptors that activate the G protein, Gq, elicit this response. Alpha2 receptors, which normally couple to Gi, activate the RSAT response when coexpressed with a hybrid Gq protein that has a Gi receptor recognition domain, called Gq/i5.
(§3) NIH-3T3 cells are plated at a density of 2×10^6 cells in 15 cm dishes and maintained in Dulbecco's modified Eagle's medium supplemented with 10% calf serum. One day later, cells are cotransfected by calcium phosphate precipitation with mammalian expression plasmids encoding p-SV-β-galactosidase (5-10 μg), receptor (1-2 μg) and G protein (1-2 μg). 40 μg salmon sperm DNA may also be included in the transfection mixture. Fresh media is added on the following day and 1-2 days later, cells are harvested and frozen in 50 assay aliquots. Cells are thawed and 100 μl added to 100 μl aliquots of various concentrations of drugs in triplicate in 96-well dishes. Incubations continue 72-96 hr at 37° C. After washing with phosphate-buffered saline, β-galactosidase enzyme activity is determined by adding 200 μl of the chromogenic substrate (consisting of 3.5 mM o-nitrophenyl-β-D-galactopyranoside and 0.5% nonidet P-40 in phosphate buffered saline), incubating overnight at 30° C. and measuring optical density at 420 nm. The absorbance is a measure of enzyme activity, which depends on cell number and reflects a receptor-mediated cell proliferation. The efficacy or intrinsic activity is calculated as a ratio of the maximal effect of the drug to the maximal effect of a standard full agonist for each receptor subtype. Brimonidine, also called UK14304, the chemical structure of which is shown below, is used as the standard agonist for the alpha2A, alpha2B and alpha2C receptors. The EC50 is the concentration at which the drug effect is half of its maximal effect.
The results of the RSAT assay with several exemplary compounds of the invention are disclosed in Table 1 above together with the chemical formulas of these exemplary compounds. EC50 values are nanomolar. NA stands for “not active” at concentrations less than 10 micromolar. IA stands for “intrinsic activity.”

alpha2A receptor = molecular target: T2, alpha2A receptor (Homo sapiens, UniProt P08913); experiment: Receptor Selection and Amplification Technology (RSAT) assay, alpha2A; conditions: for Alpha 2A EC50 / EC50: RSAT, NIH-3T3 cells cotransfected with receptor and Gq/i5, not active = not active at concentrations less than 10 micromolar; for EC50: read-out: Alpha 2A EC50; for Alpha 2A IA (intrinsic activity): ratio of maximal effect of the drug to maximal effect of standard full agonist brimonidine (UK14304)
T2 construct: expressed in transfected cells; host or cells: NIH-3T3
T2 sequence (P08913 1-465): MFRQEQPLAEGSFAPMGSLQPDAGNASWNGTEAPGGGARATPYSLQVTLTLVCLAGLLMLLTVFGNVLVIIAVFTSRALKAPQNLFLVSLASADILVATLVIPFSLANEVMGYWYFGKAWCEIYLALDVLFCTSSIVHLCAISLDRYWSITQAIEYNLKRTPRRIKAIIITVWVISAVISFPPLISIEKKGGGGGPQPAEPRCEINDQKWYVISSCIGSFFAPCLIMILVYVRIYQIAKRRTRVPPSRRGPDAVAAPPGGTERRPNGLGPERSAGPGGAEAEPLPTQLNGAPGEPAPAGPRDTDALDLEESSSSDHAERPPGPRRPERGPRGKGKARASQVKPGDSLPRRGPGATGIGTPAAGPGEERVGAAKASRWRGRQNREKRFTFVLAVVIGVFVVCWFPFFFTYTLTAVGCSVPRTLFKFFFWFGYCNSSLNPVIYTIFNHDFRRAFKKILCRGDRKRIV
Experimental: as §1, §2, §3
(§4) EC50 values are nanomolar. NA stands for “not active” at concentrations less than 10 micromolar. IA stands for “intrinsic activity.”

alpha2C receptor = molecular target: T3, alpha2C receptor (Homo sapiens, UniProt P18825); experiment: Receptor Selection and Amplification Technology (RSAT) assay, alpha2C; conditions: for EC50 / Alpha 2C EC50: RSAT, NIH-3T3 cells cotransfected with receptor and Gq/i5, not active = not active at concentrations less than 10 micromolar; for EC50: read-out: Alpha 2C EC50; for Alpha 2C IA (intrinsic activity): ratio of maximal effect of the drug to maximal effect of standard full agonist brimonidine (UK14304)
T3 construct: expressed in transfected cells; host or cells: NIH-3T3
T3 sequence (P18825 1-462): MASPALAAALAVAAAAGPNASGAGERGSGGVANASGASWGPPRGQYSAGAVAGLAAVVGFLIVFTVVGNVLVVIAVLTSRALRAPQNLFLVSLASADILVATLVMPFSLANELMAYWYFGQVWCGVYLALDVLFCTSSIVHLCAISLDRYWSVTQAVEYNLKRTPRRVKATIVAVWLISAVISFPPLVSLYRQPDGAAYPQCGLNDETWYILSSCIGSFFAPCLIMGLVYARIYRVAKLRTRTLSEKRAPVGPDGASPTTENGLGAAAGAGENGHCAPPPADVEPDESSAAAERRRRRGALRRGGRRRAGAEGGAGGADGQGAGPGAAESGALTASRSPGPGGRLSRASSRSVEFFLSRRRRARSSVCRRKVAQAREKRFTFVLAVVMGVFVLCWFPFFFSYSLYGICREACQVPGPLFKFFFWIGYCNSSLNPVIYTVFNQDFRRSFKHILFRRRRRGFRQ
Experimental: as §1, §2, §3, §4

Structure (SMILES)	EC50 (alpha2B receptor) [nM]	Alpha 2B IA (intrinsic activity) (alpha2B receptor)	Alpha 2A EC50 (alpha2A receptor)	EC50 (alpha2C receptor) [nM]	Alpha 2C IA (intrinsic activity) (alpha2C receptor)	EC50 (alpha2A receptor) [nM]	Alpha 2A IA (intrinsic activity) (alpha2A receptor)	Alpha 2C EC50 (alpha2C receptor)
CC1CC(NC(=O)NCCF)c2ccccc21 (stereo not shown)	10.9	0.96	not active	168	0.43	–	–	–
CCC[C@@H]1CCCC[C@H]1NC(=O)NCCF	1740	0.84	–	–	–	1470	0.4	not active
CC1CCC(NC(=O)NCCF)c2ccccc21 (stereo not shown)	21	0.89	–	282	0.45	331	0.34	–
COc1ccc2c(c1)CC(NC(=O)NCCF)C2 (stereo not shown)	1370	0.45	not active	–	–	–	–	not active
Cc1cccc2c1CC(NC(=O)NCCF)C2 (stereo not shown)	100	0.98	not active	454	0.4	–	–	–
Cc1ccc2c(c1)CC(NC(=O)NCCF)C2 (stereo not shown)	637	0.6	not active	–	–	–	–	not active
O=C(NCCF)NC1Cc2ccc(Cl)cc2C1 (stereo not shown)	1780	0.31	not active	–	–	–	–	not active
O=C(NCCF)NC1Cc2cccc(Br)c2C1 (stereo not shown)	156	0.45	not active	–	–	–	–	not active
O=C(NCCF)NC1Cc2cccc(F)c2C1 (stereo not shown)	21	0.68	not active	182	0.32	–	–	–
O=C(NCCF)NC1Cc2ccc(F)cc2C1 (stereo not shown)	2200	0.93	not active	–	–	–	–	not active
O=C(NCCF)NC1Cc2cccc(Cl)c2C1 (stereo not shown)	15.4	0.67	not active	12.5	0.44	–	–	–
O=C(NCCF)NC1CCc2ccc(Cl)c(Cl)c21 (stereo not shown)	72.4	1.0	not active	29.5	0.43	–	–	–
Cc1ccc2c(c1C)C(NC(=O)NCCF)CC2 (stereo not shown)	649	0.64	not active	–	–	–	–	not active
O=C(NCCF)NC1CCc2cccc(F)c21 (stereo not shown)	8.8	1.08	–	95.4	0.55	59.6	0.41	–
O=C(NCCF)NC1CCc2cccc(Br)c21 (stereo not shown)	20	1.01	–	716	0.97	111	0.52	–
O=C(NCCF)NC1CCc2c(OC(=O)c3ccccc3)cccc21 (stereo not shown)	8.3	0.95	–	102	0.73	95	0.62	–

The remaining lines, values ahead:

EC50 (alpha2B receptor) [nM]	Alpha 2B IA (intrinsic activity) (alpha2B receptor)	Alpha 2A EC50 (alpha2A receptor)	EC50 (alpha2C receptor) [nM]	Alpha 2C IA (intrinsic activity) (alpha2C receptor)	EC50 (alpha2A receptor) [nM]	Alpha 2A IA (intrinsic activity) (alpha2A receptor)	Alpha 2C EC50 (alpha2C receptor)	Structure (SMILES)
6.3	1.21	not active	192	0.64	–	–	–	O=C(NCCF)NC1CCc2ccccc21 (stereo not shown)
1.2	1.1	–	67.2	0.79	120	0.59	–	Cc1cccc2c1CCC2NC(=O)NCCF (stereo not shown)
291	0.84	–	872	0.51	2350	0.37	–	COc1cccc2c1CCCC2NC(=O)NCCF (stereo not shown)
913	0.54	–	341	0.3	> 2000	0.31	–	O=C(NCCF)NC1CCCCc2ccc(F)cc21 (stereo not shown)
27	0.91	–	391	0.58	109	0.49	–	Cc1cc(C)c2c(c1)C(NC(=O)NCCF)CCC2 (stereo not shown)
7.5	1.57	not active	41	0.63	–	–	–	COc1cccc2c1CC(NC(=O)NCCF)C2 (stereo not shown)
158	0.93	–	904	0.34	450	0.32	–	CCc1cccc2c1CCCC2NC(=O)NCCF (stereo not shown)
7.2	1.05	–	103	0.78	29	0.68	–	O=C(NCCF)NC1CCc2cccc(Cl)c21 (stereo not shown)
9.6	0.96	–	73	0.73	186	0.53	–	O=C(NCCF)NC1CCc2c(O)cccc21 (stereo not shown)
36.6	1.0	–	1300	0.54	429	0.48	–	Nc1cccc2c1CCC2NC(=O)NCCF (stereo not shown)
100	1.08	–	2460	0.41	2550	0.55	–	O=C(NCCF)NC1CCc2ncccc21 (stereo not shown)
